{
  "source": "paper PMC9712021",
  "about": "(Advances in Pharmacological and Pharmaceutical Sciences, 2022)",
  "key": {"[1]": {"system": "S. cerevisiae EG103 (SODWT)", "experiment": "S. cerevisiae central disc test, oxidative damage, strain SODWT", "type": "cell-based, Saccharomyces cerevisiae", "set-up": "unit not given here", "from_the_text": "(§1) The central disc test was done according to the method presented by Islam et al.. Superoxide dismutase (CuZnSOD-Sod1) is a cytosolic enzyme that is faulty in strain EG118, whereas mitochondrial SOD is faulty in strain EG110 (MnSOD-Sod2). The strain EG133 has both Sod1 and Sod2 defects, while EG223 has a cytosolic catalase deficiency (Cat1). While EG103 is a competent strain that is identical to the wild-type (SODWT), EG is a dual isogenic strain for the Sod1 and Cat1 genes."}, "[2]": {"system": "S. cerevisiae EG (Sod1∆Cat1∆)", "experiment": "S. cerevisiae central disc test, oxidative damage, strain Sod1∆Cat1∆", "type": "cell-based, Saccharomyces cerevisiae", "from_the_text": "as §1"}, "[3]": {"system": "S. cerevisiae strains (SODWT, Sod1Δ, Sod2Δ, Cat1Δ, Sod1/Sod2Δ, Cat1Δ/Sod1Δ)", "experiment": "In vivo antioxidant (S. cerevisiae) test, all strains tested", "type": "cell-based, Saccharomyces cerevisiae", "conditions": "all strains and concentrations tested", "from_the_text": "as §1"}, "[4]": {"system": "S. cerevisiae EG110 (Sod2∆)", "experiment": "S. cerevisiae central disc test, oxidative damage, strain Sod2∆", "type": "cell-based, Saccharomyces cerevisiae", "from_the_text": "as §1"}, "[5]": {"experiment": "Hemolytic activity in mice erythrocytes", "type": "cell-based, Mus musculus", "conditions": "male, Swiss albino, mouse, pH 7.4, 37°C, 2 h", "experimental": "This test was performed on adult Swiss albino mouse (Mus musculus) erythrocytes. The mouse was collected from the Central Animal House of the Federal University of Piaui, Brazil. It was allowed free access to standard food and water ad libitum and was kept under controlled lighting (12 h dark/light cycles) at 24 ± 2°C. Blood was collected from the retro-orbital plexus of the mouse (male, 24 gm body weight). Hemolytic activity in mouse erythrocytes was performed, according to Jamialahmadi et al.."}, "[6]": {"set-up": "method as in Oliveira [41]", "conditions": "concentrations from 7.83 to 500 μg/mL; ref Oliveira [41]; cited from earlier work"}, "[7]": {"system": "S. cerevisiae EG133 (Sod1∆Sod2∆)", "experiment": "S. cerevisiae central disc test, oxidative damage, strain Sod1∆Sod2∆", "type": "cell-based, Saccharomyces cerevisiae", "from_the_text": "as §1"}, "[8]": {"system": "S. cerevisiae EG118 (Sod1∆)", "experiment": "S. cerevisiae central disc test, oxidative damage, strain Sod1∆", "type": "cell-based, Saccharomyces cerevisiae", "from_the_text": "as §1"}, "[9]": {"system": "S. cerevisiae EG223 (Cat1∆)", "experiment": "S. cerevisiae central disc test, oxidative damage, strain Cat1∆", "type": "cell-based, Saccharomyces cerevisiae", "from_the_text": "as §1"}, "[10]": {"experiment": "DPPH radical scavenging capacity assay", "conditions": "0.9–14.4 μg/mL; standard Trolox", "experimental": "The DPPH assay was performed according to the method described by Abderrahim et al.. Briefly, a solution containing 300 μL of monoterpenes (0.9–14.4 μg/mL) was added to 2.7 mL of DPPH^• solution (0.5 mM in ethanol). After 30 min, the absorbance was measured using a spectrophotometer (Shimadzu, Japan) at 517 nm."}},
  "data": [
    {"smiles": "C=CCc1ccc(OC)cc1", "note": "[Estragole, estragole]", "values": [
      {"measurement": "oxidative damage", "setting": "[1]; 0.9 μg/mL", "result": "2.00 ± 0.54"},
      {"measurement": "oxidative damage", "setting": "[1]; 1.8 μg/mL", "result": "1.50 ± 0.70"},
      {"measurement": "oxidative damage", "setting": "[1]; 7.2 μg/mL", "result": "2.00 ± 1.41"},
      {"measurement": "oxidative damage", "setting": "[1]; 14.4 μg/mL", "result": "2.50 ± 0.70"},
      {"measurement": "oxidative damage", "setting": "[1]; 32 μg/mL", "result": "2.00 ± 0.54"},
      {"measurement": "oxidative damage", "setting": "[1]; 64 μg/mL", "result": "2.00 ± 0.54"},
      {"measurement": "oxidative damage", "setting": "[1]; 128 μg/mL", "result": "1.50 ± 0.70"},
      {"measurement": "oxidative damage", "setting": "[1]; 3.6 mg/mL", "result": "1.00 ± 1.41"},
      {"measurement": "oxidative damage", "setting": "[1]; 256 mg/mL", "result": "3.50 ± 0.70"},
      {"measurement": "oxidative damage", "setting": "[1]; 500 mg/mL", "result": "1.50 ± 0.70"},
      {"measurement": "oxidative damage", "setting": "[2]; 0.9 μg/mL", "result": "3.50 ± 0.70"},
      {"measurement": "oxidative damage", "setting": "[2]; 1.8 μg/mL", "result": "4.00 ± 2.82"},
      {"measurement": "oxidative damage", "setting": "[2]; 7.2 μg/mL", "result": "3.50 ± 0.70"},
      {"measurement": "oxidative damage", "setting": "[2]; 14.4 μg/mL", "result": "5.00 ± 0.0"},
      {"measurement": "oxidative damage", "setting": "[2]; 32 μg/mL", "result": "4.50 ± 0.70"},
      {"measurement": "oxidative damage", "setting": "[2]; 64 μg/mL", "result": "3.00 ± 1.41"},
      {"measurement": "oxidative damage", "setting": "[2]; 128 μg/mL", "result": "4.50 ± 2.12"},
      {"measurement": "oxidative damage", "setting": "[2]; 256 μg/mL", "result": "3.00 ± 2.82"},
      {"measurement": "oxidative damage", "setting": "[2]; 3.6 mg/mL", "result": "4.00 ± 1.41"},
      {"measurement": "oxidative damage", "setting": "[2]; 500 mg/mL", "result": "3.50 ± 0.70"},
      {"measurement": "percentage modulation of oxidative damage caused by the stressor H2O2", "setting": "[3]", "result": "more than 60%"},
      {"measurement": "oxidative damage", "setting": "[4]; 0.9 μg/mL", "result": "3.00 ± 1.41"},
      {"measurement": "oxidative damage", "setting": "[4]; 1.8 μg/mL", "result": "3.50 ± 0.70"},
      {"measurement": "oxidative damage", "setting": "[4]; 7.2 μg/mL", "result": "2.00 ± 0.54"},
      {"measurement": "oxidative damage", "setting": "[4]; 14.4 μg/mL", "result": "3.50 ± 0.70"},
      {"measurement": "oxidative damage", "setting": "[4]; 32 μg/mL", "result": "2.00 ± 0.54"},
      {"measurement": "oxidative damage", "setting": "[4]; 64 μg/mL", "result": "3.50 ± 0.70"},
      {"measurement": "oxidative damage", "setting": "[4]; 128 μg/mL", "result": "3.50 ± 0.70"},
      {"measurement": "oxidative damage", "setting": "[4]; 3.6 mg/mL", "result": "2.00 ± 0.54"},
      {"measurement": "oxidative damage", "setting": "[4]; 256 mg/mL", "result": "2.50 ± 0.70"},
      {"measurement": "oxidative damage", "setting": "[4]; 500 mg/mL", "result": "3.00 ± 1.41"},
      {"measurement": "hemolysis at 2 h, 31.25 μg/mL", "setting": "[5]; 31.25 μg/mL", "result": "1.67 ± 0.35", "unit": "%"},
      {"measurement": "hemolysis at 2 h, 62.5 μg/mL", "setting": "[5]; 62.5 μg/mL", "result": "3.49 ± 0.26", "unit": "%"},
      {"measurement": "hemolysis at 2 h, 125 μg/mL", "setting": "[5]; 125 μg/mL", "result": "4.45 ± 0.47", "unit": "%"},
      {"measurement": "hemolysis at 2 h, 250 μg/mL", "setting": "[5]; 250 μg/mL", "result": "8.21 ± 0.35", "unit": "%"},
      {"measurement": "hemolysis at 2 h, 500 μg/mL", "setting": "[5]; 500 μg/mL", "result": "10.3 ± 1.35", "unit": "%"},
      {"measurement": "antioxidant capacity", "setting": "[6]", "result": "mild antioxidant capacity"},
      {"measurement": "oxidative damage", "setting": "[7]; 0.9 μg/mL", "result": "3.50 ± 0.70"},
      {"measurement": "oxidative damage", "setting": "[7]; 1.8 μg/mL", "result": "3.50 ± 0.70"},
      {"measurement": "oxidative damage", "setting": "[7]; 7.2 μg/mL", "result": "2.50 ± 0.70"},
      {"measurement": "oxidative damage", "setting": "[7]; 14.4 μg/mL", "result": "3.50 ± 0.70"},
      {"measurement": "oxidative damage", "setting": "[7]; 32 μg/mL", "result": "2.50 ± 0.70"},
      {"measurement": "oxidative damage", "setting": "[7]; 64 μg/mL", "result": "1.50 ± 0.70"},
      {"measurement": "oxidative damage", "setting": "[7]; 128 μg/mL", "result": "3.00 ± 1.41"},
      {"measurement": "oxidative damage", "setting": "[7]; 3.6 mg/mL", "result": "2.50 ± 0.70"},
      {"measurement": "oxidative damage", "setting": "[7]; 256 mg/mL", "result": "2.50 ± 2.12"},
      {"measurement": "oxidative damage", "setting": "[7]; 500 mg/mL", "result": "2.50 ± 0.70"},
      {"measurement": "oxidative damage", "setting": "[8]; 0.9 μg/mL", "result": "2.00 ± 1.41"},
      {"measurement": "oxidative damage", "setting": "[8]; 1.8 μg/mL", "result": "1.50 ± 0.70"},
      {"measurement": "oxidative damage", "setting": "[8]; 7.2 μg/mL", "result": "2.00 ± 1.41"},
      {"measurement": "oxidative damage", "setting": "[8]; 14.4 μg/mL", "result": "2.00 ± 0.54"},
      {"measurement": "oxidative damage", "setting": "[8]; 32 μg/mL", "result": "2.50 ± 0.70"},
      {"measurement": "oxidative damage", "setting": "[8]; 64 μg/mL", "result": "2.50 ± 0.70"},
      {"measurement": "oxidative damage", "setting": "[8]; 128 μg/mL", "result": "2.50 ± 0.70"},
      {"measurement": "oxidative damage", "setting": "[8]; 3.6 mg/mL", "result": "2.50 ± 0.70"},
      {"measurement": "oxidative damage", "setting": "[8]; 256 mg/mL", "result": "2.50 ± 0.70"},
      {"measurement": "oxidative damage", "setting": "[8]; 500 mg/mL", "result": "1.50 ± 0.70"},
      {"measurement": "oxidative damage", "setting": "[9]; 0.9 μg/mL", "result": "3.00 ± 1.41"},
      {"measurement": "oxidative damage", "setting": "[9]; 1.8 μg/mL", "result": "4.50 ± 0.70"},
      {"measurement": "oxidative damage", "setting": "[9]; 7.2 μg/mL", "result": "1.50 ± 2.12"},
      {"measurement": "oxidative damage", "setting": "[9]; 14.4 μg/mL", "result": "4.50 ± 2.12"},
      {"measurement": "oxidative damage", "setting": "[9]; 32 μg/mL", "result": "3.00 ± 1.41"},
      {"measurement": "oxidative damage", "setting": "[9]; 64 μg/mL", "result": "7.00 ± 1.41^∗"},
      {"measurement": "oxidative damage", "setting": "[9]; 128 μg/mL", "result": "2.50 ± 0.70"},
      {"measurement": "oxidative damage", "setting": "[9]; 3.6 mg/mL", "result": "4.00 ± 1.41"},
      {"measurement": "oxidative damage", "setting": "[9]; 256 mg/mL", "result": "3.00 ± 1.41"},
      {"measurement": "oxidative damage", "setting": "[9]; 500 mg/mL", "result": "4.50 ± 0.70"},
      {"measurement": "DPPH radical scavenging activity", "setting": "[10]", "result": "highest scavenging activity"}
    ]}
  ]
}
